Experimental data: patent US9427001B2, “Enhanced bioavailable iodine molecules” (ZINPRO CORPORATION, priority 2011, dated 2016)
Read-outs that look alike come from different tables or passages of the source.

How the values were obtained:
[1] = nonlactating pregnant beef cows, bolus
[2] = nonlactating pregnant beef cows; 60 mg Iodine/day for 10 days

Row | Substance | Average Serum iodine level (day 2-day 14) ([1]; 60 mg Iodine/day for 10 days (day 0-day 10), average of day 2-14) | Serum iodine Day 10 (last treatment day) ([1]; 60 mg Iodine/day for 10 days, peak value at day 10) | Blood levels of iodine compared with CaIO3 or EDDI ([1]; 60 mg iodine day 0-day 10) | Average Serum iodine level (day 2-day 14) [2] | Serum iodine Day 10 (last treatment day) [2]
1 | Zinc Lysine Diiodide [Structure I] | 184 | 380 | higher blood levels of iodine than CaIO3 or EDDI | – | –
2 | Zinc Hydroxy-Methylthio-Butyric Acid Iodide [Example III] | – | – | – | 386 | 630
